According to patent US6482609B1, “Isolated human EDG-4 receptor and polynucletide encoding said receptor” (priority 1997, dated 2002):

Tests used:
HeLa cells = test: IL-8 ELISA on supernatants of treated HeLa cells; format: cell-based, human; settings: for PTX sensitivity of the IL-8 response: PTX 50 ng/ml overnight pre-treatment; for IL-8 induction: concentration series up to 10 μM, 6 hours
Protocol: Procedure #1 For HeLa Cells
Cells: HeLa (adenocarcinoma, human)
Media: DMEM/F12+10%FBS adherent
1) Cells were seeded at 0.2×10^6 cells/well in 6-well plates.
2) 1.5 ml 0.5% FBS media was added to each well.
1) Made up all required solutions in 0.5% FBS media (control). Handling of […] for use in NF-κB experiments requires that sonication, commonly used to resuspend LPA, not be done; NF-κB may be activated by lipid peroxides created through vigorous frothing.
3) 1.5 ml appropriate treatments were added to each well.
5) After the specified time cell supernatants were collected into 1.5 ml eppendorf tubes, spun down at 14000 rpm for 5 minutes and stored at −20° C. for later ELISA determination.
D. Detection of Interleukin-8 (IL-8) using an IL-8 ELISA (Enzyme-Linked InimunoSorbent Assay).
1) The Quantikine Human IL-8 ImmunoAssay Kit was obtained from R&D Systems (Cat. D8050).
4) The assay procedure was followed as recommended in the kit for cell culture supernatant samples.
5) ELISA was performed on 50 μl samples of culture supernatant and duplicate samples were measured for each well. Each treatment was performed on triplicate wells.
6) Plates were read on UVmax kinetic microplate reader (Molecular Devices), set to 450 nm and correction set to 575 nm, using Wsoftmax software version 2.34.
Procedure #2 For HeLa Cells
1) Cells were seeded at 2.5×10^4 cells/well in 24-well plates.
2) 0.5 ml 0.5% FBS media was added to all wells not requiring PTX pre-treatment.
3) For wells requiring PTX; 0.5 ml 0.5% FBS media containing 50 ng/ml PTX (1 volume PTX (RBI Cat. P140): 1 volume DTT, incubate 37° C. for 30 minutes then dilute to 50 ng/ml) was added.
Follow Procedure #2 For HeLa Cells with the following exceptions:
Concentrations for LPC, LPE, LPG, LPS, sphingosine and SM used were 10, 50, 100, 1000, and 5000 nM. Concentrations for LPI, lyso-PAF and lysosulfatide used were 0.3 and 3 μM.
2) A 30 minute pre-treatment at 37° C./5%CO2 of 0.5 ml of suramin was done to all wells except control, any PTX and ET-18-OCH3 wells before step 3 of section C.

[1] = test system: 293-EBNA cells transfected with empty expression vector pcDNA3; test: SRE luciferase reporter in 293-EBNA cells, empty vector pcDNA3; format: cell-based
Protocol: NE-κB activates gene expression by binding to specific DNA sequences found in the promoters of genes regulated by this inflammation-related transcription factor. […] The SRE reporter was identical to the NF-κB reporter, except that the NF-κB binding sites were replaced with 2 SRE sites. The new reporter was called 2XSREtk-p4Luc-zeo.
(§1) The protocol described in Example 11 for Assay 1 was followed except for the following changes:
(§2) 2) SRE Cotransfection: 0.5 μg of 2XSREtk-p4Luc-zeo reporter DNA and 3.5 μg pcDNA3, EDG-1, EDG-3 (pC3-hE3HP2, different from the clone used in Assay 2 of Example 11) or the newly cloned human EDG-4 (pC3-hedg4#36); NF-κB Cotransfection: 2 μg 6XNFκBtk-p4Luc-zeo reporter DNA and 2.0 μg pcDNA3, EDG-1, EDG-3 (pC3-hE3HP2), or EDG-4 (pC3-hedg4#36). Expression plasmid and reporter plasmid DNA samples were combined and diluted in 750 μl of DMEM/F12 (serum free media) and 20 μl Plus Reagent (Lipofectamine Plus Kit, Life Technologies Cat. 10964-013), and incubated at room temperature for 15 min.
(§3) 1) Media was removed and cells treated with compounds diluted in DMEM/F12 media.
(§4) 2) The cells were treated for 6 hours.
Transfection was accomplished using the Lipofectamine Plus kit (Life Technologies, Cat. 10964-013), using the manufacturer's recommended conditions.
293-EBNA cells were grown, lipofected in monolayer cultures, and pretreated as described above for Example 11, assay #1, except that NF-κB and AP-1 reporter-transfected cells were pretreated for 6 hr in medium containing 0.5% FBS, then treated overnight in the same medium with or without 10 μM LPA.

human EDG-3 [2] = test: NF-κB luciferase reporter in 293-EBNA cells, EDG-3; format: cell-based; settings: for NF-κB response, original human EDG-3 clone: original human EDG-3 clone (pC3-hedg3)
Protocol: 2) 3 μg NFκB-tk-p4Luc reporter DNA and 3 μg pC3-hedg1, pC3-hedg3, pC3-redg4, pC3-hedg5 or pcDNA3 DNA was diluted in 240 μl OPTI-MEM (Gibco; Cat. 31985-062)
Transient Transfection Protocol for 293-EBNA (Assay 3):
as §1, §2
3) 30 μl Lipofectamine Reagent (Lipofectamine Plus Kit) was diluted in 750 μl DMEM/F12. The diluted Lipofectamine was then combined with the DNA/Plus mixture and incubated at room temperature for 15 min.
6) The transfection medium was replaced with serum-free DMEM/F12 for cells transfected with 2XSREtk-p4Luc-zeo reporter DNA and with DMEM/F12 plus 10% FBS for cells tansfected with 6XNFκBtk-p4Luc-zeo reporter DNA.
2) Transfected cells were harvested by trypsinization and 50,000 cells per well were plated in 96-well Blackview plates coated with poly D-lysine (Becton Dickinson Labware, Cat. 40640). No cells were plated in the outside wells of the 96-well plate.
1) Media for cells transfected with 6XNFκBtk-p4Luc-zeo reporter DNA was replaced with DMEM/F12 plus 0.5%FBS.
as §3, §4
3) Luciferase assay was performed.

human EDG-3 [3] = target: T1, human EDG-3 (Homo sapiens, UniProt Q99500); test: SRE luciferase reporter in 293-EBNA cells, EDG-3; format: cell-based; settings: EDG-3 clone pC3-E3HP2; 3 μM; 6 hours
T1 construct: expressed in transfected cells; host or cells: 293-EBNA
Protocol: NE-κB activates gene expression by binding to specific DNA sequences found in the promoters of genes regulated by this inflammation-related transcription factor. […] Transient Transfection Protocol for 293-EBNA (Assay 3): The protocol described in Example 11 for Assay 1 was followed except for the following changes: […] 3) 30 μl Lipofectamine Reagent (Lipofectamine Plus Kit) was diluted in 750 μl DMEM/F12. The diluted Lipofectamine was then combined with the DNA/Plus mixture and incubated at room temperature for 15 min. […] 2) Transfected cells were harvested by trypsinization and 50,000 cells per well were plated in 96-well Blackview plates coated with poly D-lysine (Becton Dickinson Labware, Cat. 40640). No cells were plated in the outside wells of the 96-well plate. […] The following treatments were used for all transfections: […] 2) The cells were treated for 6 hours. 3) Luciferase assay was performed.

T1 sequence (Q99500 whole entry): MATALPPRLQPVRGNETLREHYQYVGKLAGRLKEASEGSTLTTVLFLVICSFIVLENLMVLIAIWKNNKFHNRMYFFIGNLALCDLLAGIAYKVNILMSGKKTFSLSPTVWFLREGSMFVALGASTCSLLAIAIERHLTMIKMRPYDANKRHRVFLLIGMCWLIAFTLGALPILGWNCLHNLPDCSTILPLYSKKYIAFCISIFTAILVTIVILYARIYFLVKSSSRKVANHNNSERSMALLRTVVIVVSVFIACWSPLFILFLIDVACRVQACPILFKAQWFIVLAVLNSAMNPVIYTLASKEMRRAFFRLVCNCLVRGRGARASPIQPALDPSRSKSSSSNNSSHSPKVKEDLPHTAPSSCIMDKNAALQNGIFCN

## CCCCCCCCCCCCC/C=C/[C@@H](O)[C@@H](N)COP(=O)(O)O [S1P, sphingosine-1-phosphate]
HeLa cells; 0.3 μM, 6 hr
  IL-8 production at 0.3 μM: near plateau values
HeLa cells; 1 and 10 μM, 1, 6 or 24 hours
  IL-8 response: time- and concentration-dependent IL-8 response
HeLa cells
  PTX sensitivity of the IL-8 response: PTX-sensitive
  IL-8 induction: induce IL-8 in HeLa cells in a concentration-dependent manner
HeLa cells; repeated experiments
  Lowest concentration that reliably induces IL-8: about 30 nM
[1]; 3 μM, 6 hours, Assay #3
  SRE response in control cotransfection: about 1.5 fold
Human EDG-3 [2]
  NF-κB response, original human EDG-3 clone: did not produce a NF-κB response
Human EDG-3 [3]
  SRE response: 12 fold

## CCCCCCCCCCCCC/C=C/[C@@H](O)[C@@H](N)COP(=O)([O-])OCC[N+](C)(C)C [SPC, sphingosylphosphorylcholine]
HeLa cells
  PTX sensitivity of the IL-8 response: PTX-sensitive
  IL-8 induction: induce IL-8 in HeLa cells in a concentration-dependent manner
[1]; 3 μM SPC, 6 hr, Example 15A
  Induction of the SRE reporter, control: about 2.5 fold
Human EDG-3 [2]; EDG-3 clone pC3-E3HP2, 3 μM, 6 hours
  Induction of the NF-κB reporter gene compared to untreated controls: about 8 fold
Human EDG-3 [2]
  NF-κB response, original human EDG-3 clone: did not produce a NF-κB response
Human EDG-3 [3]
  SRE response: 11 fold
